The source of these data is patent US7112607B2, “Allosteric adenosine receptor modulators” (King Pharmaceuticals Research & Development, Inc., priority 1997, dated 2006).

For the experiment, the target named is T1, human recombinant A1 adenosine receptors (Homo sapiens, UniProt P30542).
T1 construct: expressed in transfected cells; host or cells: Chinese hamster ovary (CHO) cells, CHO:huA1, G-418 selected
T1 sequence (P30542 1-326): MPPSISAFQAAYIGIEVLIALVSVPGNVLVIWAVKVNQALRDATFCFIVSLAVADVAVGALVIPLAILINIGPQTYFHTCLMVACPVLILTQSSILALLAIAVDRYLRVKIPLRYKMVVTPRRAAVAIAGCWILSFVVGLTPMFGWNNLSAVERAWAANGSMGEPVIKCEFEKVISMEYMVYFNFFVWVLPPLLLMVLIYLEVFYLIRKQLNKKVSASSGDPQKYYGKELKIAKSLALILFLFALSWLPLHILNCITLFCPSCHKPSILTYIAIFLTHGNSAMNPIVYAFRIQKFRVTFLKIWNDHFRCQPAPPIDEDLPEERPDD
As to the kind of experiment: Allosteric enhancement: reduction of cAMP content of CHO:huA1 cells (radioimmunoassay). Format: cell-based. Particulars: forskolin 1 μM, rolipram 20 μM, CPA 0.01 nM, adenosine deaminase, 6 min at 36° C.; for inhibition at 0.01 µM / inhibition at 0.1 µM / inhibition at 1 µM / inhibition at 10 µM: 0.1 h, read-out: Change in cAMP Content from Control (mean + SEM). How it is done: Chinese hamster ovary cells expressing human recombinant A1 adenosine receptors (CHO:huA1 cells) at a density of approximately 8000 fmol/mg protein were prepared as previously described (Kollias-Baker et al., (1997), J. Pharmacol. Exp. Ther. 281: 761–768) and aliquots of the cells at low passage numbers were frozen and stored in liquid nitrogen. When compounds were tested, an aliquot of CHO:huA1 cells were rapidly thawed after removal from liquid nitrogen, then grown in Ham's F12 culture medium with 10% fetal bovine serum and 0.5 mg/mL of antibiotic G-418 (Shryock, Ozeck, and Belardinelli (1998), Mol. Pharmacol 53: 886–893). Cells were passaged thrice weekly. Aliquots of cells were placed into 12-well plates with culture medium, serum, and antibiotic for 48 hours, by which time the cells had grown to a confluent monolayer.
Allosteric enhancement was measured as the action of a test compound at different concentrations (0.01, 0.1, 1 and 10 μM) to reduce the cAMP content of CHO:huA1 cells. To initiate an experiment, growth medium was removed from the 12-well plates and cells were washed once with warm Hanks' buffered saline. The wash solution was then removed and replaced with fresh Hanks' solution containing forskolin (1 μM), rolipram (20 μM), N^6-cyclopentyladenosine (CPA, 0.01 nM), adenosine deaminase (2 U/mL), and the test compound. Forskolin was used to stimulate the activity of adenylyl cyclase, rolipram to inhibit cAMP phosphodiesterase, adenosine deaminase to degrade endogenous adenosine, and CPA to cause a small increase of the number of activated adenosine receptors. After 6 min of incubation at 36° C. in the presence of test compound, the incubation solution was removed and hydrochloric acid (final concentration 50 mM) was added to terminate drug action.
The content of cAMP in acidified extracts of cells was determined by radioimmunoassay as previously described (Kollias-Baker et al., (1997), J. Pharmacol. Exp. Ther. 281: 761–768). Because the magnitude of the effects of allosteric enhancers on CHO:huA1 cells changed subtly with passage number and differed slightly among different aliquots of cells, the actions of the test compounds and the action of a reference compound (PD 81,723) were assessed in each experiment. The effect of each test compound on cAMP content is presented in Table 1 as a percentage of the value of cAMP content in the absence of drug (control, 100%). Each value is a mean±standard error of 6 determinations in each of the number of experiments indicated in the “n” column of the table.

Turning to `Nc1sc2c(c1C(=O)c1ccco1)CCN(Cc1ccccc1)C2` [Example 12, (2-Amino-6-benzyl-4,5,6,7-tetrahydrothieno[2,3-c]pyridin-3-yl)-furan-2-yl-methanone], for the setting “0.01 μM test compound”, the inhibition at 0.01 µM stood at 27 ± 4%. In addition, where the note is “0.1 μM test compound”, the inhibition at 0.1 µM was determined as 0.6 ± 4%. Further, the inhibition at 1 µM (1 μM test compound) was 15 ± 3%. Also, the inhibition at 10 µM (10 μM test compound) stood at 8 ± 11%.
On the same counts, the results for `Nc1sc2c(c1C(=O)c1cc3ccccc3o1)CCC2` [Example 15, (2-Amino-5,6-dihydro-4H-cyclopenta[b]thiophen-3-yl)-benzofuran-2-yl-methanone] are 5 ± 3%, 13 ± 3%, -3 ± 5% and 4 ± 6%.
Turning to `Nc1sc2c(c1C(=O)c1ccccn1)CCC2` [Example 17], the “Change in cAMP Content from Control (mean + SEM)” value was −3 ± 4% (0.01 μM test compound), 0.8 ± 7% (0.1 μM test compound), −1 ± 6% (1 μM test compound) and 2 ± 7% (10 μM test compound).
Turning to `Nc1sc2c(c1C(=O)c1ccc3ccccc3c1)CCC2` [Example 31, (2-Amino-5,6-dihydro-4H-cyclopenta[b]thiophen-3-yl)-naphthalen-2-yl-methanone], the inhibition at 0.01 µM (0.01 μM test compound) came to 19 ± 3%. Moreover, the inhibition at 0.1 µM (0.1 μM test compound) came to 14 ± 4%. Under “1 μM test compound”, the inhibition at 1 µM worked out at 15 ± 3%. For the same compound, the inhibition at 10 µM (10 μM test compound) was 51 ± 3%.
As for `Nc1sc2c(c1C(=O)c1ccc(I)c3ccccc13)CCCC2` [Example 26, (2-Amino-4,5,6,7-tetrahydrobenzo[b]thiophen-3-yl)-(4-iodonaphthalen-1-yl)-methanone], the inhibition at 0.01 µM (0.01 μM test compound) is 3 ± 4%. For the same compound, the inhibition at 0.1 µM (0.1 μM test compound) was 4 ± 4%. Moreover, the inhibition at 1 µM (1 μM test compound) was found to be 24 ± 5%. For the same compound, the inhibition at 10 µM (10 μM test compound) stood at 67 ± 2%.
In the case of `Nc1sc2c(c1C(=O)c1ccc(Cl)c3ccccc13)CCCC2` [Example 28, (2-Amino-4,5,6,7-tetrahydrobenzo[b]thiophen-3-yl)-(4-chloronaphthalen-1-yl)-methanone], the inhibition at 0.01 µM (0.01 μM test compound) came to 11 ± 3%. The inhibition at 0.1 µM (0.1 μM test compound) is -3 ± 3%. The inhibition at 1 µM (1 μM test compound) turned out to be 25 ± 4%. The inhibition at 10 µM (10 μM test compound) turned out to be 44 ± 2%.
As for `Cc1sc(N)c(C(=O)c2cccc3ccccc23)c1C` [Example 8, (2-Amino-4,5-dimethylthiophen-3-yl)-naphthalen-1-yl-methanone], the inhibition at 0.01 µM (0.01 μM test compound) stood at 0.6 ± 2%. The inhibition at 0.1 µM (0.1 μM test compound) was 3 ± 3%. In addition, for the setting “1 μM test compound”, the inhibition at 1 µM was -6 ± 5%. Besides, the inhibition at 10 µM (10 μM test compound) worked out at 45 ± 2%.
For `Nc1sc2c(c1C(=O)c1ccc(Br)c3ccccc13)CCCC2` [Example 29, (2-Amino-4,5,6,7-tetrahydrobenzo[b]thiophen-3-yl)-(4-bromonaphthalen-1-yl)-methanone] the same measures were 6 ± 3%, 10 ± 2%, 29 ± 2% and 72 ± 1%.
Take `Nc1sc2c(c1C(=O)c1ccco1)CCCC2` [Example 4, (2-Amino-4,5,6,7-tetrahydrobenzo[b]thiophen-3-yl)-furan-2-yl-methanone]: where the note is “0.01 μM test compound”, the inhibition at 0.01 µM is 10 ± 2%. Besides, the inhibition at 0.1 µM (0.1 μM test compound) is -2 ± 6%. In addition, the inhibition at 1 µM (1 μM test compound) came out at 3 ± 6%. In addition, the inhibition at 10 µM (10 μM test compound) was 10 ± 7%.
As to `Nc1sc2c(c1C(=O)c1ccccn1)CCN(Cc1ccccc1)C2` [Example 20, (2-Amino-6-benzyl-4,5,6,7-tetrahydrothieno[2,3-c]pyridin-3-yl)-pyridin-2-yl-methanone], the inhibition at 0.01 µM (0.01 μM test compound) is -2 ± 4%. Where the note is “0.1 μM test compound”, the inhibition at 0.1 µM was -7 ± 5%. Also, where the note is “1 μM test compound”, the inhibition at 1 µM was -0.1 ± 5%. Besides, under “10 μM test compound”, the inhibition at 10 µM is -31 ± 3%.
Consider `Nc1sc2c(c1C(=O)c1cc3ccccc3o1)CCCC2` [Example 14, (2-Amino-4,5,6,7-tetrahydrobenzo[b]thiophen-3-yl)-benzofuran-2-yl-methanone], for which the inhibition at 0.01 µM (0.01 μM test compound) turned out to be 13 ± 5%. For the same compound, the inhibition at 0.1 µM (0.1 μM test compound) stood at 3 ± 4%. Further, the inhibition at 1 µM (1 μM test compound) was 4 ± 3%. Besides, where the note is “10 μM test compound”, the inhibition at 10 µM came out at 5 ± 4%.
For `Cc1sc(N)c(C(=O)c2ccccn2)c1C` [Example 21, (2-Amino-4,5-dimethylthiophen-3-yl)-pyridin-2-yl-methanone] the same measures were -0.7 ± 3%, 8 ± 3%, -4 ± 4% and -14 ± 4%.
For `Nc1sc2c(c1C(=O)c1ccccn1)CCCC2` [Example 19, (2-Amino-4,5,6,7-tetrahydrobenzo[b]thiophen-3-yl)-pyridin-2-yl-methanone] the same measures were 2 ± 4%, 8 ± 5%, 11 ± 5% and -8 ± 3%.
For `Cc1sc(N)c(C(=O)c2cc3ccccc3o2)c1C` [Example 18, (2-Amino-4,5-dimethylthiophen-3-yl)-benzofuran-2-yl-methanone] the same measures were -6 ± 5%, 7 ± 4%, -16 ± 5% and -7 ± 6%.
As for `Nc1sc2c(c1C(=O)c1cccs1)CCCC2` [Example 5], the “Change in cAMP Content from Control (mean + SEM)” value is, setting by setting: (0.01 μM test compound) −11 ± 3%; (0.1 μM test compound) −11 ± 5%; (1 μM test compound) −16 ± 3%; (10 μM test compound) −40 ± 2%.
On the same counts, the results for `Cc1sc(N)c(C(=O)c2cccc(C(F)(F)F)c2)c1C` [PD 81,723, reference compound] are −1 ± 2%, −7 ± 2%, −13 ± 1% and −50 ± 1%.
Regarding `Nc1sc2c(c1C(=O)c1cccc3ccccc13)CCN(Cc1ccccc1)C2` [Example 9, (2-Amino-6-benzyl-4,5,6,7-tetrahydrothieno[2,3-c]pyridin-3-yl)-naphthalen-1-yl-methanone], the inhibition at 0.01 µM (0.01 μM test compound) was 21 ± 3%. For the same compound, for the setting “0.1 μM test compound”, the inhibition at 0.1 µM came to 7 ± 4%. Further, where the note is “1 μM test compound”, the inhibition at 1 µM was determined as 25 ± 4%. Where the note is “10 μM test compound”, the inhibition at 10 µM is -19 ± 2%.
On the same counts, the results for `Nc1sc2c(c1C(=O)c1cccc3ccccc13)CCC2` [Example 7, (2-Amino-5,6-dihydro-4H-cyclopenta[b]thiophen-3-yl)-naphthalen-1-yl-methanone] are 0.6 ± 3%, 6 ± 1%, 29 ± 4% and 60 ± 1%.
For the compound `Nc1sc2c(c1C(=O)c1ccc(Cl)cc1)CCSC2` [Example 2, (2-Amino-4,7-dihydro-5H-thieno[2,3-c]thiopyran-3-yl)-(4-chlorophenyl)-methanone], the inhibition at 0.01 µM (0.01 μM test compound) was -15 ± 3%. The inhibition at 0.1 µM (0.1 μM test compound) came out at 10 ± 4%. The inhibition at 1 µM (1 μM test compound) was -16 ± 5%. For the same compound, the inhibition at 10 µM (10 μM test compound) was determined as 0.3 ± 5%.
